Measured values reported in patent publication US20160051629A1, “INHIBITION OF RIP KINASES FOR TREATING LYSOSOMAL STORAGE DISEASES” (YEDA RESEARCH AND DEVELOPMENT CO. LTD., priority 2013, published 2016).

What was measured:
[1] = in vivo; cited from earlier work
Gaucher disease mice = experiment: Anakinra (IL-1Ra) treatment of CBE-induced Gaucher disease mice; format: in vivo
Description: Mice were injected i.p. with 50 mg/kg/day CBE or CBE+IL-1Ra (Anakinra, 75 mg/kg) from 8 days of age. Body weight (FIG. 7A) and life span (FIG. 7B) of mice treated with either CBE only or CBE+Anakinara (n=3).
Gba^flox/flox; mice were crossed with Gba^flox/+; Nestin-Cre mice to generate Gba^flox/flox; Nestin-Cre mice (Enquist, I. B. et al. 2007. Proc. Natl. Acad. Sci. U.S.A. 104, 17483-17488) and Gba^flox/+; Nestin-Cre mice, which served as healthy controls. Genotyping was performed by PCR using genomic DNA extracted from mouse tails or embryonic brains (Farfel-Becker, T. et al. 2009. Hum. Mol. Genet. 18, 1482-1488). Both male and female mice were used. The colony was maintained in the experimental animal center of the Weizmann Institute of Science. All animal experiments were approved by the Weizmann Institute Institutional Animal Care and Use Committee. Mice deficient in galactocerebrosidase (the Twitcher mouse) were used as a model of Krabbe disease (Suzuki. K. & Taniike, M. 1995. Res. Tech. 32, 204-214), mice deficient in the β-subunit of β-hexosaminidase A and B were used as a model of Sandhoff disease (Sango, K. et al. 1995. Nat. Genet. 11, 170-176). Brains from a mouse model of the GM1 gangliosidosis (Hahn, C. N. et al. 1997. Hum. Mol. Genet. 6, 205-211), defective in lysosomal β-galactosidase, and from Niemann-Pick disease Type C1 mice (Pentchev, P. G. et al. 1984. J. Biol. Chem. 259, 5784-5791), defective in the NPC1 gene, were also used. Mice deficient in TNFα (strain B6; 129S6-Tnftm1Gkl/J, The Jackson Laboratory) were provided by Dr. David Wallach (Weizmann Institute, Israel). C57BL/6J (The Jackson Laboratory) mice were injected daily intraperitoneally with 50 mg CBE/kg body weight/day (Kanfer, J. N. et al. 1975. Biochem. Biophys. Res. Commun. 67, 85-90) or with phosphate-buffered saline from 8 days of age.

| Compound | crossing of the blood-brain barrier [1] | half-life [1] [h] | clinical course of Gaucher disease mice (Gaucher disease mice; 50 mg/kg/day CBE i.p. + IL-1Ra (Anakinra, 75 mg/kg) from 8 days of age, FIG. 7) | gain weight (body weight) (Gaucher disease mice; CBE-treated mice, 50 mg/kg/day CBE i.p. + Anakinra 75 mg/kg from 8 days of age, vs CBE only, n=3, FIG. 7A) | life-span (Gaucher disease mice; CBE-treated mice, 50 mg/kg/day CBE i.p. + Anakinra 75 mg/kg from 8 days of age, vs CBE only, n=3, FIG. 7B) |
| --- | --- | --- | --- | --- | --- |
| CN1C(=O)C(Cc2c[nH]c3ccccc23)NC1=S (centres unmarked) [Nec-1, necrostatin-1] | crosses the blood-brain barrier | ~1 | – | – | – |
| Anakinra: a recombinant, non-glycosylated version of human IL-1 receptor antagonist, sold under the trade name KINERET (Amgen) | – | – | improves the clinical course | improves gain weight | improves |
